Molecular target: T1, human TLR8 (Homo sapiens, UniProt Q9NR97)
T1 sequence (Q9NR97 27-1041): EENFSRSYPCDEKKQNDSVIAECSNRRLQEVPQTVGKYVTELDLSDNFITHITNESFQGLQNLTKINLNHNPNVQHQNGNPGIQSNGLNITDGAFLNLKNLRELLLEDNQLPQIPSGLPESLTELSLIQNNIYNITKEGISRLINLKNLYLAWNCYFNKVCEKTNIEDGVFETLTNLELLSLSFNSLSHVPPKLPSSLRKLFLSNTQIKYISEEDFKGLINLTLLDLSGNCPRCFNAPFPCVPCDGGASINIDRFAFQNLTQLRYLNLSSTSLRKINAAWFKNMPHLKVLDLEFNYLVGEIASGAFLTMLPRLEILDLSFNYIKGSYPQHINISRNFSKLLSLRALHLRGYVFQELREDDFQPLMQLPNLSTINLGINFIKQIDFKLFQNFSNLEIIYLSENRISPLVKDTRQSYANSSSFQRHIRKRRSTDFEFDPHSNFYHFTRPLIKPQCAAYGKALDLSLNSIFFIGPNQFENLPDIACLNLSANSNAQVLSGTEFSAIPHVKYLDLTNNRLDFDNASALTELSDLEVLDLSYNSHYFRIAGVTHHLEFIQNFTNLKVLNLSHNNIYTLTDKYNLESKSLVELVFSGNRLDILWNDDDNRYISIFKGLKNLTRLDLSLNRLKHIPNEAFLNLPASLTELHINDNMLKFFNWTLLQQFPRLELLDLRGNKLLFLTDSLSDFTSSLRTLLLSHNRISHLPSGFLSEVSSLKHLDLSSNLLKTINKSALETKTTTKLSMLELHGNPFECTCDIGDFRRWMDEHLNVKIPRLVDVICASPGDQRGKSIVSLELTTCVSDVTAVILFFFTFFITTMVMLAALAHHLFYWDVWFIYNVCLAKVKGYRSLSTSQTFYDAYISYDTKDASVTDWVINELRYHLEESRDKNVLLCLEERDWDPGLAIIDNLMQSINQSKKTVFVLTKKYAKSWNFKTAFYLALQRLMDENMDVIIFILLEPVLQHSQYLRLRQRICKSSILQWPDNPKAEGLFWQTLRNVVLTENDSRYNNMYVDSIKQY
Assay: HEK293-Blue-hTLR-8 cells assay (SEAP reporter, R848 stimulation)
Format: cell-based
Details: HEK293-Blue-hTLR-8 cells, R848 ligand, 20 hrs incubation; read-out: TLR8 IC50
Method: The following tests were carried out in order to determine the activity of the compounds of formula (I) in HEK293-Blue-hTLR-7/8/9 cells assay.
HEK293-Blue-hTLR-8 Cells Assay:
A stable HEK293-Blue-hTLR-8 cell line was purchased from InvivoGen (Cat. #: hkb-htlr8, San Diego, California, USA). These cells were originally designed for studying the stimulation of human TLR8 by monitoring the activation of NF-κB. A SEAP (secreted embryonic alkaline phosphatase) reporter gene was placed under the control of the IFN-β minimal promoter fused to five NF-κB and AP-1-binding sites. The SEAP was induced by activating NF-κB and AP-1 via stimulating HEK-Blue hTLR8 cells with TLR8 ligands. Therefore the reporter expression was declined by TLR8 antagonist under the stimulation of a ligand, such as R848, for incubation of 20 hrs. The cell culture supernatant SEAP reporter activity was determined using QUANTI-Blue™ kit (Cat. #: rep-qb1, Invivogen, San Diego, Ca, USA) at a wavelength of 640 nm, a detection medium that turns purple or blue in the presence of alkaline phosphatase.
HEK293-Blue-hTLR8 cells were incubated at a density of 250,000˜450,000 cells/mL in a volume of 170 μL in a 96-well plate in Dulbecco's Modified Eagle's medium (DMEM) containing 4.5 g/L glucose, 50 U/mL penicillin, […], […], 2 mM L-glutamine, 10% (v/v) heat-inactivated fetal bovine serum with addition of 20 μL test compound in a serial dilution in the presence of final DMSO at 1% and 10 μL of 60 uM R848 in above DMEM, perform incubation under 37° C. in a CO2 incubator for 20 hrs. Then 20 μL of the supernatant from each well was incubated with 180 μL Quanti-blue substrate solution at 37° C. for 2 hrs and the absorbance was read at 620˜655 nm using a spectrophotometer. The signalling pathway that TLR8 activation leads to downstream NF-κB activation has been widely accepted, and therefore similar reporter assay was modified for evaluating TLR8 antagonist.

| Compound | IC50 |
| --- | --- |
| C[C@@H]1CN(c2ccc(C#N)n3nccc23)C[C@H](C(=O)N2CC(N)C2)O1 [Example 8, 4-[(2R,6R)-2-(3-aminoazetidine-1-carbonyl)-6-methyl-morpholin-4-yl]pyrazolo[1,5a]pyridine-7-carbonitrile] | 520 nM |
| C[C@@H]1CN(c2ccc(C#N)n3nccc23)C[C@H](C(=O)NC2CCCNCC2)O1 (stereo partly drawn) [Example 6, (2R,6R)-N-(azepan-4-yl)-4-(7-cyanopyrazolo[1,5-a]pyridin-4-yl)-6-methyl-morpholine-2-carboxamide] | 11 nM |
| C[C@@H]1CN(c2ccc(C#N)n3nccc23)C[C@H](C(=O)NC2CCOCC2)O1 [Example 4, (2R,6R)-4-(7-cyanopyrazolo[1,5-a]pyridin-4-yl)-6-methyl-N-tetrahydropyran-4-yl-morpholine-2-carboxamide] | 910 nM |
| C[C@@H]1CN(c2ccc(C#N)n3nccc23)C[C@H](C(=O)NC2CCNCC2)O1 [Example 24, (2R,6R)-4-(7-cyanopyrazolo[1,5-a]pyridin-4-yl)-6-methyl-N-(4-piperidyl)morpholine-2-carboxamide] | 37 nM |
| C[C@@H]1CN(c2ccc(C#N)n3nccc23)C[C@H](C(=O)NCC2CN(C)CCO2)O1 (stereo partly drawn) [Example 7, (2R,6R)-4-(7-cyanopyrazolo[1,5-a]pyridin-4-yl)-6-methyl-N-[(4-methylmorpholin-2-yl)methyl]morpholine-2-carboxamide] | 50 nM |
| CCC(O)CNC(=O)[C@H]1CN(c2ccc(C#N)n3nccc23)C[C@@H](C)O1 (stereo partly drawn) [Example 13, (2R,6R)-4-(7-cyanopyrazolo[1,5-a]pyridin-4-yl)-N-(2-hydroxybutyl)-6-methyl-morpholine-2-carboxamide] | 570 nM |
| C[C@@H]1CN(c2ccc(C#N)n3nccc23)C[C@H](C(=O)NC2CC3CCC2CN3C)O1 (stereo partly drawn) [Example 34, (2R,6R)-4-(7-cyanopyrazolo[1,5-a]pyridin-4-yl)-6-methyl-N-(2-methyl-2-azabicyclo[2.2.2]octan-5-yl)morpholine-2-carboxamide] | 98 nM |
| C[C@@H]1CN(c2ccc(C#N)n3nccc23)C[C@H](C(=O)NC2CC3CC2CN3)O1 (stereo partly drawn) [Example 36, (2R,6R)-N-(2-azabicyclo[2.2.1]heptan-5-yl)-4-(7-cyanopyrazolo[1,5-a]pyridin-4-yl)-6-methyl-morpholine-2-carboxamide] | 830 nM |
| C[C@@H]1CN(c2ccc(C#N)n3nccc23)C[C@H](C(=O)NC2CC3CCC(C2)N3C)O1 (stereo partly drawn) [Example 33, (2R,6R)-4-(7-cyanopyrazolo[1,5-a]pyridin-4-yl)-6-methyl-N-(8-methyl-8-azabicyclo[3.2.1]octan-3-yl)morpholine-2-carboxamide] | 58 nM |
| C[C@@H]1CN(c2ccc(C#N)n3nccc23)C[C@H](C(=O)NC23CC(CO)(C2)C3)O1 [Example 15, (2R,6R)-4-(7-cyanopyrazolo[1,5-a]pyridin-4-yl)-N-[3-(hydroxymethyl)-1-bicyclo[1.1.1]pentanyl]-6-methyl-morpholine-2-carboxamide] | 710 nM |
| C[C@@H]1CN(c2ccc(C#N)n3nccc23)C[C@H](C(=O)NC2CN(C)CC23CC3)O1 (stereo partly drawn) [Example 32, (2R,6R)-4-(7-cyanopyrazolo[1,5-a]pyridin-4-yl)-6-methyl-N-(5-methyl-5-azaspiro[2.4]heptan-7-yl)morpholine-2-carboxamide] | 31 nM |

Continued, values first:

| IC50 | Compound |
| --- | --- |
| 12 nM | C[C@H]1C[C@@H](N)CN(c2ccc(C#N)n3nccc23)C1 [Example 43, 4-[(3R,5S)-3-amino-5-methyl-1-piperidyl]pyrazolo[1,5-a]pyridine-7-carbonitrile] |
| 380 nM | C[C@@H]1CN(c2ccc(C#N)n3nccc23)C[C@H](C(=O)NCC2CCNC2)O1 (stereo partly drawn) [Example 40, (2R,6R)-4-(7-cyanopyrazolo[1,5-a]pyridin-4-yl)-6-methyl-N-(pyrrolidin-3-ylmethyl)morpholine-2-carboxamide] |
| 18 nM | C[C@@H]1CN(c2ccc(C#N)n3nccc23)C[C@H](C(=O)NC2C3CCCC2CNC3)O1 (stereo partly drawn) [Example 37, (2R,6R)-N-(3-azabicyclo[3.3.1]nonan-9-yl)-4-(7-cyanopyrazolo[1,5-a]pyridin-4-yl)-6-methyl-morpholine-2-carboxamide] |
| 7 nM | C[C@@H]1CN(c2ccc(Cl)n3nccc23)C[C@H](C(=O)NC2CCN(C)CC2)O1 [Example 38, (2R,6R)-4-(7-chloropyrazolo[1,5-a]pyridin-4-yl)-6-methyl-N-(1-methyl-4-piperidyl)morpholine-2-carboxamide] |
| 240 nM | C[C@H]1C[C@@H](NCC#N)CN(c2ccc(C#N)n3nccc23)C1 [Example 46, 4-[(3R,5S)-3-(cyanomethylamino)-5-methyl-1-piperidyl]pyrazolo[1,5-a]pyridine-7-carbonitrile] |
| 140 nM | C[C@H]1C[C@@H](NC(=O)[C@H](C)N)CN(c2ccc(C#N)n3nccc23)C1 [Example 44, (2S)-2-amino-N-[(3R,5S)-1-(7-cyanopyrazolo[1,5-a]pyridin-4-yl)-5-methyl-3-piperidyl]propanamide] |
| 62 nM | C[C@@H]1CN(c2ccc(C#N)n3nccc23)C[C@H](C(=O)Nc2ccc(C(=O)N3CCNCC3)cc2)O1 [Example 42, (2R,6R)-4-(7-cyanopyrazolo[1,5-a]pyridin-4-yl)-6-methyl-N-[4-(piperazine-1-carbonyl)phenyl]morpholine-2-carboxamide] |
